Measurements from patent publication US11578085B2, “Heterocycle-substituted bicyclic azole pesticides” (FMC CORPORATION, priority 2013, dated 2023).
Read-outs that look alike come from different tables or passages of the source.

Experiments:
Assay type in all cases: in vivo
[1] = test system: green peach aphid (Myzus persicae (Sulzer)); assay: Test C: control of green peach aphid on radish plant (spray, contact and/or systemic); details: 144 h
Method: (§1) Test compounds were formulated using a solution containing 10% acetone, 90% water and 300 ppm X-77® Spreader Lo-Foam Formula non-ionic surfactant containing alkylarylpolyoxyethylene, free fatty acids, glycols and isopropanol (Loveland Industries, Inc. Greeley, Colo., USA). The formulated compounds were applied in 1 mL of liquid through a SUJ2 atomizer nozzle with 1/8 JJ custom body (Spraying Systems Co. Wheaton, Ill., USA) positioned 1.27 cm (0.5 inches) above the top of each test unit. Test compounds were sprayed at the rates indicated, and each test was replicated three times.
For evaluating control of green peach aphid (Myzus persicae (Sulzer)) through contact and/or systemic means, the test unit consisted of a small open container with a 12-15-day-old radish plant inside. This was pre-infested by placing on a leaf of the test plant 30-40 aphids on a piece of leaf excised from a culture plant (cut-leaf method). The aphids moved onto the test plant as the leaf piece desiccated. After pre-infestation, the soil of the test unit was covered with a layer of sand.
Test compounds were formulated and sprayed at 250 and/or 50 ppm. After spraying of the formulated test compound, each test unit was allowed to dry for 1 hour and then a black, screened cap was placed on top. The test units were held for 6 days in a growth chamber at 19-21° C. and 50-70% relative humidity. Each test unit was then visually assessed for insect mortality.

[2] = test system: cotton melon aphid (Aphis gossypii (Glover)); assay: Test D: control of cotton melon aphid on cotton plant (spray, contact and/or systemic); details: 144 h, assessed after 6 days; for mortality at 50 ppm: sprayed at 50 ppm; for mortality at 250 ppm: sprayed at 250 ppm
Method: as §1
For evaluating control of cotton melon aphid (Aphis gossypii (Glover)) through contact and/or systemic means, the test unit consisted of a small open container with a 6-7-day-old cotton plant inside. This was pre-infested with 30-40 insects on a piece of leaf according to the cut-leaf method, and the soil of the test unit was covered with a layer of sand.
Test compounds were formulated and sprayed at 250 and/or 50 ppm. After spraying, the test units were maintained in a growth chamber for 6 days at 19° C. and 70% relative humidity. Each test unit was then visually assessed for insect mortality.

[3] = test system: sweetpotato whitefly (Bemisia tabaci (Gennadius)); assay: Test F: control of sweetpotato whitefly on cotton plant (spray, contact and/or systemic); details: 312 h
Method: as §1
For evaluating control of the sweetpotato whitefly (Bemisia tabaci (Gennadius)) through contact and/or systemic means, the test unit consisted of a small open container with a 12-14-day-old cotton plant inside. Prior to the spray application, both cotyledons were removed from the plant, leaving one true leaf for the assay. Adult whiteflies were allowed to lay eggs on the plant and then were removed from the test unit. Cotton plants infested with at least 15 eggs were submitted to the test for spraying.
Test compounds were formulated and sprayed at 250 and/or 50 ppm. After spraying, the test units were allowed to dry for 1 hour. The cylinders were then removed, and the units were taken to a growth chamber and held for 13 days at 28° C. and 50-70% relative humidity. Each test unit was then visually assessed for insect mortality.

[4] = test system: potato leafhopper (Empoasca fabae (Harris)); assay: Test B: control of potato leafhopper on Soleil bean plant (spray, contact and/or systemic); details: 144 h, sprayed at 250 ppm, assessed after 6 days
Method: as §1
For evaluating control of potato leafhopper (Empoasca fabae (Harris)) through contact and/or systemic means, the test unit consisted of a small open container with a 5-6-day-old Soleil bean plant (primary leaves emerged) inside. White sand was added to the top of the soil, and one of the primary leaves was excised prior to application of the test compound.
Test compounds were formulated and sprayed at 250 and/or 50 ppm. After spraying of the formulated test compound, the test units were allowed to dry for 1 hour before they were post-infested with 5 potato leafhoppers (18-to-21-day-old adults). […] Each test unit was then visually assessed for insect mortality.

[5] = sprayed at 50 ppm, assessed after 6 days, read-out: mortality
[6] = sprayed at 250 ppm, assessed after 6 days, read-out: mortality
[7] = sprayed at 250 ppm, assessed after 13 days, read-out: mortality

With `CC(C)NC(=O)c1cccc2nn(-c3cccnc3)cc12` [Compound 8, N-(1-methylethyl)-2-(3-pyridinyl)-2H-indazole-4-carboxamide] the mortality at 50 ppm [1, 5] was ≥ 80%, the mortality at 250 ppm [1, 6] was ≥ 80% and the mortality at 50 ppm [2] was ≥ 80%. The mortality at 250 ppm [2] was ≥ 80% and the mortality at 250 ppm [3, 7] was ≥ 50%.

With `O=C(NC1CC1)c1cccc2nn(-c3cccnc3)cc12` [Compound 14, N-cyclopropyl-2-(3-pyridinyl)-2H-indazole-4-carboxamide] the mortality at 50 ppm [1, 5] was ≥ 80%, the mortality at 250 ppm [1, 6] was ≥ 80% and the mortality at 50 ppm [2] was ≥ 80%. The mortality at 250 ppm [2] was ≥ 80%.

`O=C(NC1CCCCC1)c1cccc2nn(-c3cccnc3)cc12` [Compound 16, N-cyclohexyl-2-(3-pyridinyl)-2H-indazole-4-carboxamide] was tested, and the mortality at 50 ppm [1, 5] was ≥ 80%, the mortality at 250 ppm [1, 6] was ≥ 80% and the mortality at 50 ppm [2] was ≥ 80%. The mortality at 250 ppm [2] was ≥ 80%.

In the case of `O=C(NCC(F)(F)F)c1cccc2nn(-c3cccnc3)cc12` [Compound 19, 2-(3-pyridinyl)-N-(2,2,2-trifluoroethyl)-2H-indazole-4-carboxamide], the mortality at 50 ppm [1, 5] is reported as ≥ 80%, the mortality at 250 ppm [1, 6] is reported as ≥ 80% and the mortality at 50 ppm [2] is reported as ≥ 80%. The mortality at 250 ppm [2] was ≥ 80%.

For `O=C(NCC1CCCO1)c1ccc2nn(-c3cccnc3)cc2c1` (stereo not shown) [Compound 41, 2-(3-pyridinyl)-N-[(tetrahydro-2-furanyl)methyl]-2H-indazole-5-carboxamide], the mortality at 50 ppm [1, 5] was ≥ 80%, the mortality at 250 ppm [1, 6] was ≥ 80% and the mortality at 50 ppm [2] was ≥ 80%. For the same molecule, the mortality at 250 ppm [2] was ≥ 80%.

For `COC(=O)NNC(=O)c1ccc2nn(-c3cccnc3)cc2c1` [Compound 42, methyl 2-[[2-(3-pyridinyl)-2H-indazol-5-yl]carbonyl]hydrazinecarboxylate], the mortality at 50 ppm [1, 5] was ≥ 80%, the mortality at 250 ppm [1, 6] was ≥ 80% and the mortality at 50 ppm [2] was ≥ 80%. For the same molecule, the mortality at 250 ppm [3, 7] was ≥ 50%.

In the case of `O=C(NCC1CC1(F)F)c1ccc2nn(-c3cccnc3)cc2c1` (stereo not shown) [Compound 51, N-[(2,2-difluorocyclopropyl)methyl]-2-(3-pyridinyl)-2H-indazole-5-carboxamide], the mortality at 50 ppm [1, 5] is reported as ≥ 80%, the mortality at 250 ppm [1, 6] is reported as ≥ 80% and the mortality at 50 ppm [2] is reported as ≥ 80%. The mortality at 250 ppm [2] was ≥ 80%.

With `CC(F)(F)CNC(=O)c1ccc2nn(-c3cccnc3)cc2c1` [Compound 54, N-(2,2-difluoropropyl)-2-(3-pyridinyl)-2H-indazole-5-carboxamide] the mortality at 50 ppm [1, 5] was ≥ 80%, the mortality at 250 ppm [1, 6] was ≥ 80% and the mortality at 50 ppm [2] was ≥ 80%. The mortality at 250 ppm [2] was ≥ 80%.

In the case of `O=C(NCc1ncccn1)c1ccc2nn(-c3cccnc3)cc2c1` [Compound 55, 2-(3-pyridinyl)-N-(2-pyrimidinylmethyl)-2H-indazole-5-carboxamide], the mortality at 50 ppm [1, 5] is reported as ≥ 80%, the mortality at 250 ppm [1, 6] is reported as ≥ 80% and the mortality at 50 ppm [2] is reported as ≥ 80%. The mortality at 250 ppm [2] was ≥ 80%.

`Cc1cnc(CNC(=O)c2ccc3nn(-c4cccnc4)cc3c2)cn1` [Compound 76, N-[(5-methyl-2-pyrazinyl)methyl]-2-(3-pyridinyl)-2H-indazole-5-carboxamide] was tested, and the mortality at 50 ppm [1, 5] was ≥ 80%, the mortality at 250 ppm [1, 6] was ≥ 80% and the mortality at 50 ppm [2] was ≥ 80%.

`CSCCNC(=O)c1cccc2nc(-c3cccnc3)sc12` [Compound 84, N-[2-(methylthio)ethyl]-2-(3-pyridinyl)-7-benzothiazolecarboxamide] was tested, and the mortality at 50 ppm [1, 5] was ≥ 80% and the mortality at 250 ppm [1, 6] was ≥ 80%.

With `O=C(NCC1CCCO1)c1ccc2nn(-c3ccc[n+]([O-])c3)cc2c1` (stereo not shown) [Compound 462] the mortality at 50 ppm [1, 5] was ≥ 80%, the mortality at 250 ppm [1, 6] was ≥ 80% and the mortality at 250 ppm [2] was ≥ 80%.

For `O=C(NCCCl)c1ccc2nn(-c3cccnc3)cc2c1` [Compound 463], the mortality at 50 ppm [1] was ≥ 80%, the mortality at 250 ppm [1] was ≥ 80% and the mortality at 250 ppm [3] was ≥ 50%.

`O=C(NCC(F)(F)F)c1cccc2nn(-c3ccc[n+]([O-])c3)cc12` [Compound 466] was tested, and the mortality at 250 ppm [4] was ≥ 80%.
